From article PMC10861560, “Exploiting epigenetic targets to overcome taxane resistance in prostate cancer” (Cell Death & Disease, 2024)

Target: T1, ABCB1 (MDR1) (Homo sapiens, UniProt P08183)
T1 construct: endogenous full-length protein in intact Du145-DtxR cells, detected by western blot after heat shock
Assay: cellular thermal shift assay (CETSA), western blot
Format: cell-based
Conditions: 5 µM, intact Du145-DtxR cells, 1 h at 37 °C, heat shock 44-52 °C; positive control

T1 sequence (P08183 whole entry): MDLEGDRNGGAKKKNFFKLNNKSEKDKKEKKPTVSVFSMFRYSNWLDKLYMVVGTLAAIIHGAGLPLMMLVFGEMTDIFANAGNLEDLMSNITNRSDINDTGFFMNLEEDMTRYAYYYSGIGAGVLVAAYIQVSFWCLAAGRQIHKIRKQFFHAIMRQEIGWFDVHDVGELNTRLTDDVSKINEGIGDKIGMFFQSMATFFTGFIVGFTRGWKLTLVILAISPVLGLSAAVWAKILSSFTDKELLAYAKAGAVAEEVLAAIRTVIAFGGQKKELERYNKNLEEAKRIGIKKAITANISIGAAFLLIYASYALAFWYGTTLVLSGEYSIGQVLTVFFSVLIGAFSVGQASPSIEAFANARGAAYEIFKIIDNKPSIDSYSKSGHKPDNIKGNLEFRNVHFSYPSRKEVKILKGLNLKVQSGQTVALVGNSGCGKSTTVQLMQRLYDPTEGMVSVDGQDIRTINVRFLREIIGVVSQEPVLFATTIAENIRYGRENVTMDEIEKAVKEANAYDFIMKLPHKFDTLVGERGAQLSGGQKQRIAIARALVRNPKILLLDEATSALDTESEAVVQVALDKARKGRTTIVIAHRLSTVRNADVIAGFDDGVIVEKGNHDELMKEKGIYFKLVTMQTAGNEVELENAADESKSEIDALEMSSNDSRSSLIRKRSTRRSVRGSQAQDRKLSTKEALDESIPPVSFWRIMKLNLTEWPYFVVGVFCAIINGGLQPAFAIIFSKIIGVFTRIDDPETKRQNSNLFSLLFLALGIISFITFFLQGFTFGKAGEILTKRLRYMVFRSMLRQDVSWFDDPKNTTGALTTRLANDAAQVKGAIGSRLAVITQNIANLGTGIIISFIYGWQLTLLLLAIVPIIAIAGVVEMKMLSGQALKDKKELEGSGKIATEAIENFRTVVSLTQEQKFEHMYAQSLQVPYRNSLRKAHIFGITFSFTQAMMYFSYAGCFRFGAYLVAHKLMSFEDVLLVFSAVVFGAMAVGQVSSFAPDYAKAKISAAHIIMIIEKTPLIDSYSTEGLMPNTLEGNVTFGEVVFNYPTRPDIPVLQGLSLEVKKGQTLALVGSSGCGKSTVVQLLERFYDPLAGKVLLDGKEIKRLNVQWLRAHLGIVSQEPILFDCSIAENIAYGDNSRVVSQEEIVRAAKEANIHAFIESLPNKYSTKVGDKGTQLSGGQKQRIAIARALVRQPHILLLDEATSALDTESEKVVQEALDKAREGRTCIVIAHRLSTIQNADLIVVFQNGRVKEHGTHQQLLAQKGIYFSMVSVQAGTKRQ

## O[C@@H](COc1cccc2ncccc12)CN1CCN([C@@H]2c3ccccc3[C@@H]3[C@H](c4ccccc42)C3(F)F)CC1 [Zosuquidar]
  cellular thermal shift assay (CETSA), western blot: it showed an ABCB1-binding compared to DMSO (Fig. 3H)
